The target of this experiment is Alkaline phosphatase, germ cell type (Homo sapiens) (UniProt P10696). The experiment is described as follows: PLAP-like enzyme inhibition by analogs, SAR follow-up, selectivity assay for mouse IAP inhibitor project, biochemical, human placental-like ALPPL2 isozyme (AID 493136). As to conditions: purified placental-like alkaline phosphatase, phosphatase activity.

Each structure is given as a SMILES string. Active and inactive are the calls of the source. How the calls were made is not given here.

Sequence of Alkaline phosphatase, germ cell type (Homo sapiens) (P10696 whole entry, looked up): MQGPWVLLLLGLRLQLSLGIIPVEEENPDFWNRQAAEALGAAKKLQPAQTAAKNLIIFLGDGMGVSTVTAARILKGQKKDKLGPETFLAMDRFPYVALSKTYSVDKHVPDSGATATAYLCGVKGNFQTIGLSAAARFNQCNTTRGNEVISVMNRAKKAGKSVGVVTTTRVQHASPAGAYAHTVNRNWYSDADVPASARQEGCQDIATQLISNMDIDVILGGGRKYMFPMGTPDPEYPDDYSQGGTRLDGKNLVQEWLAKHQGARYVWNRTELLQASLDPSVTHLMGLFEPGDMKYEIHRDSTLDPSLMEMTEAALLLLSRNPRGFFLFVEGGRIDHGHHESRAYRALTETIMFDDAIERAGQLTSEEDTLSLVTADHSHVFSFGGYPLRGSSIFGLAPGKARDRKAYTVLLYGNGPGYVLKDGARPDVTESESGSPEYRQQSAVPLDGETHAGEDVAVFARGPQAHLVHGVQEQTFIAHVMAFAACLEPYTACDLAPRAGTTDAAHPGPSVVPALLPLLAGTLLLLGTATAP

`COc1cccc(-c2cccc(NC(=O)C3CCN(Cc4ccc(C)o4)CC3)c2)c1`: the IC50 was > 100 µM (inactive).
With `Cc1ccc(NC(=O)CCNS(=O)(=O)c2ccc3[nH]c(=O)oc3c2)cc1C`, the IC50 is > 100 µM (inactive).
Then `Cc1nn(C(C)C)c(C)c1CN1CCC(C(=O)Nc2cccc(-c3cccc(F)c3)c2)CC1`, with > 100 µM (inactive); and `CCn1cc(CN2CCC(C(=O)Nc3cccc(-c4cccc(Cl)c4)c3)CC2)cn1`, with > 100 µM (inactive).
The result for `O=C(Nc1cccc(-c2cccc(F)c2)c1)C1CCN(Cc2ccc(CO)o2)CC1` reads > 100 µM (inactive); that for `Cc1cc(Cl)ccc1NC(=S)NCCC(c1ccccc1)c1ccccc1`, > 100 µM (inactive); that for `CCn1cc(CN2CCC(C(=O)Nc3cccc(-c4cccc(OC)c4)c3)CC2)cn1`, > 100 µM (inactive).
The result for `Cc1ccc(C)c(NC(=S)NCCC(c2ccccc2)c2ccccc2)c1` reads > 100 µM (inactive); that for `CCOC(=O)c1ccc(NC(=S)NCCC(c2ccccc2)c2ccccc2)cc1`, > 100 µM (inactive).
Turning to `COC(=O)c1cc(NC(=S)NCCC(c2ccccc2)c2ccccc2)cc(C(=O)OC)c1`, the IC50 was > 100 µM (inactive).
Take `CCN1CCN(S(=O)(=O)c2ccc3[nH]c(=O)oc3c2)CC1`: the IC50 is > 100 µM (inactive).
The result for `CCCn1ncc(CN2CCC(C(=O)Nc3cccc(-c4cccc(F)c4)c3)CC2)c1C` reads > 100 µM (inactive).
The result for `COc1cccc(NC(=S)NCCC(c2ccccc2)c2ccccc2)c1` reads > 100 µM (inactive).
The result for `CN(C)S(=O)(=O)c1cccc(NC(=S)NCCC(c2ccccc2)c2ccccc2)c1` reads > 100 µM (inactive); that for `CC(C)N1CCC(=NNC(=O)c2cc(O)c(O)c(O)c2)CC1`, > 100 µM (inactive); that for `Fc1ccc(NC(=S)NCCC(c2ccccc2)c2ccccc2)cc1Cl`, > 100 µM (inactive).
On to `CCn1ncc(CN2CCC(C(=O)Nc3cccc(-c4cccc(F)c4)c3)CC2)c1C`, for which the IC50 is > 100 µM (inactive).
The result for `O=C(CN1C(=O)/C(=C/c2ccco2)SC1=S)Nc1cccc(C(=O)O)c1` reads > 100 µM (inactive); that for `FC(F)(F)c1cccc(NC(=S)NCCC(c2ccccc2)c2ccccc2)c1`, > 100 µM (inactive); that for `Cc1c(Cl)cccc1NC(=S)NCCC(c1ccccc1)c1ccccc1`, > 100 µM (inactive).
`S=C(NCCC(c1ccccc1)c1ccccc1)Nc1ccc(Cl)cc1`: the IC50 was > 100 µM (inactive).
For the molecule `S=C(NCCC(c1ccccc1)c1ccccc1)Nc1ccc(Nc2ccccc2)cc1`, the IC50 is > 100 µM (inactive).
Then `Cc1ccc(NC(=S)NCCC(c2ccccc2)c2ccccc2)cc1`, with > 100 µM (inactive).
The result for `Cc1c(Cl)cccc1Nc1nc(-c2ccc(O)c(O)c2)cs1` reads > 100 µM (inactive); that for `Fc1ccccc1NC(=S)NCCC(c1ccccc1)c1ccccc1`, > 100 µM (inactive); that for `C=CCn1cc(CN2CCC(C(=O)Nc3cccc(-c4cccc(Cl)c4)c3)CC2)c(C)n1`, > 100 µM (inactive).
The result for `O=C(CN1C(=O)/C(=C/c2ccco2)SC1=S)Nc1ccc(C(=O)O)cc1` reads > 100 µM (inactive).
`Cc1nn(C)c(Cl)c1CN1CCC(C(=O)Nc2cccc(-c3cccc(F)c3)c2)CC1`: the IC50 is > 100 µM (inactive).
Regarding `COc1ccc(C(=O)CSc2n[nH]c(-c3ccccc3)n2)cc1OC`, the IC50 was > 100 µM (inactive).
The result for `CC(C)n1cc(CN2CCC(C(=O)Nc3cccc(-c4cccc(F)c4)c3)CC2)cn1` reads > 100 µM (inactive); that for `CCn1cc(CN2CCC(C(=O)Nc3cccc(-c4cccc(OC)c4)c3)CC2)c(C)n1`, > 100 µM (inactive).
Then `O=C(CN1C(=O)/C(=C\c2ccco2)SC1=S)Nc1ccccc1C(=O)O`, with > 100 µM (inactive).
Consider `COc1cc([N+](=O)[O-])ccc1NC(=S)NCCC(c1ccccc1)c1ccccc1`, for which the IC50 is > 100 µM (inactive).
Then `S=C(NCCC(c1ccccc1)c1ccccc1)Nc1ccccc1`, with > 100 µM (inactive); and `COc1ccc(NC(=S)NCCC(c2ccccc2)c2ccccc2)cc1`, with > 100 µM (inactive); and `CC1(c2ccccc2)CC(C)(C)N(C(=S)Nc2ccccc2)c2ccccc21` (stereo not drawn), with > 100 µM (inactive).
Regarding `Cn1cc(CN2CCC(C(=O)Nc3cccc(-c4cccc(F)c4)c3)CC2)cn1`, the IC50 is > 100 µM (inactive).
Then `CN1CCC(=NNC(=O)c2cc(O)c(O)c(O)c2)CC1`, with > 100 µM (inactive); and `S=C(NCCC(c1ccccc1)c1ccccc1)Nc1ccc(Cl)cc1Cl`, with > 100 µM (inactive); and `CC(C)c1ccccc1NC(=S)NCCC(c1ccccc1)c1ccccc1`, with > 100 µM (inactive).
Then `CCn1nc(C)c(CN2CCC(C(=O)Nc3cccc(-c4cccc(Cl)c4)c3)CC2)c1C`, with > 100 µM (inactive).
The result for `Cc1cccc(NC(=S)NCCC(c2ccccc2)c2ccccc2)c1C` reads > 100 µM (inactive).
On to `CCc1ccccc1Nc1nc(-c2ccc(O)c(O)c2)cs1`, for which the IC50 is > 100 µM (inactive).
With `Cc1c(CN2CCC(C(=O)Nc3cccc(-c4cccc(Cl)c4)c3)CC2)cnn1C`, the IC50 was > 100 µM (inactive).
The result for `Cc1ccc(NC(=S)NCCC(c2ccccc2)c2ccccc2)cc1C` reads > 100 µM (inactive); that for `CCn1nc(C)c(CN2CCC(C(=O)Nc3cccc(-c4cccc(F)c4)c3)CC2)c1C`, > 100 µM (inactive).
The result for `Cc1cc(NC(=O)CCNS(=O)(=O)c2ccc3[nH]c(=O)oc3c2)ccc1Br` reads > 100 µM (inactive); that for `Oc1ccc(-c2csc(Nc3cccc4ccccc34)n2)cc1O`, > 100 µM (inactive); that for `COc1ccc(Cl)cc1Nc1nc(-c2ccc(O)c(O)c2)cs1`, > 100 µM (inactive).
The result for `O=C(Nc1cccc(-c2cccc(Cl)c2)c1)C1CCN(C2CCC2)CC1` reads > 100 µM (inactive); that for `S=C(NCCC(c1ccccc1)c1ccccc1)Nc1cccc(Cl)c1`, > 100 µM (inactive); that for `CCn1cc(CN2CCC(C(=O)Nc3cccc(-c4cccc(F)c4)c3)CC2)cn1`, > 100 µM (inactive).
Consider `CC(C)n1cc(CN2CCC(C(=O)Nc3cccc(-c4cccc(Cl)c4)c3)CC2)cn1`, for which the IC50 was > 100 µM (inactive).
The result for `NS(=O)(=O)c1ccc(NC(=S)NCCC(c2ccccc2)c2ccccc2)cc1` reads > 100 µM (inactive); that for `O=C(Nc1cccc(-c2cccc(Cl)c2)c1)C1CCN(Cc2ccc(CO)o2)CC1`, > 100 µM (inactive); that for `Cc1cc(C)cc(NC(=S)NCCC(c2ccccc2)c2ccccc2)c1`, > 100 µM (inactive).
Then `Cc1cc(=O)oc2cc(NC(=S)NCCC(c3ccccc3)c3ccccc3)ccc12`, with > 100 µM (inactive).
Then `COc1ccc(Cl)cc1NC(=S)NCCC(c1ccccc1)c1ccccc1`, with > 100 µM (inactive); and `Cc1ccc(CN2CCC(C(=O)Nc3cccc(-c4cccc(F)c4)c3)CC2)o1`, with > 100 µM (inactive).
As to `Cn1cc(CN2CCC(C(=O)Nc3cccc(-c4cccc(Cl)c4)c3)CC2)cn1`, the IC50 is > 100 µM (inactive).
Then `COc1cccc(-c2cccc(NC(=O)C3CCN(Cc4ccc(CO)o4)CC3)c2)c1`, with > 100 µM (inactive); and `C=CCn1cc(CN2CCC(C(=O)Nc3cccc(-c4cccc(F)c4)c3)CC2)c(C)n1`, with > 100 µM (inactive); and `COc1cc(NC(=S)NCCC(c2ccccc2)c2ccccc2)cc(OC)c1`, with > 100 µM (inactive).
Then `O=[N+]([O-])c1ccc(NC(=S)NCCC(c2ccccc2)c2ccccc2)cc1`, with > 100 µM (inactive); and `COCc1ccc(CN2CCC(C(=O)Nc3cccc(-c4cccc(Cl)c4)c3)CC2)o1`, with > 100 µM (inactive); and `S=C(NCCC(c1ccccc1)c1ccccc1)Nc1ccc(Cl)c(Cl)c1`, with > 100 µM (inactive).
Then `O=S(=O)(Nc1ncccn1)c1ccc(NC(=S)NCCC(c2ccccc2)c2ccccc2)cc1`, with > 100 µM (inactive); and `CCn1c(SCC(=O)c2ccc(O)c(O)c2)nnc1-c1ccccc1OC`, with 24.4 µM.
